{"source": "paper PMC9715946", "about": "“Bioenhancing effects of piperine and curcumin on triterpenoid pharmacokinetics and neurodegenerative metabolomes from Centella asiatica extract in beagle dogs” (Scientific Reports, 2022)", "key": {"[1]": {"details": "in combination with 100 mg/kg of curcumin; cited from earlier work"}, "[2]": {"assay": "Pharmacokinetic study: plasma triterpenoids by LCMS, non-compartmental analysis", "set-up": "species or system beagle dogs", "details": "dog, in vivo; for Tmax: 20 mg/kg", "from_the_text": "The proposed animal experiment was approved by the Institutional Animal Care and Use Committee of the Chulalongkorn University Laboratory Animal Centre (CULAC), Chulalongkorn University, Bangkok, Thailand (Protocol number 2073029, Approval date: […] The dogs were fed with a normal dog diet (Beauty Pro, Nippon Pet Food Co. Ltd.) once a day and water ad libitum. Two groups of four dogs were randomly used with a 2-week washout period. […] After receiving the test substances, the dogs were transferred to a metabolic cage for 48 h for the collection of urine and faeces. All animal procedures were performed in accordance with the ethical principles, regulations, and guidelines for the use of animals (National Research Council of Thailand, 2015). This study was conducted in compliance with the ARRIVE guidelines. Four experimental groups received the oral test compound once daily for seven consecutive days, as follows: ([…] 20 […] 20 mg/kg + piperine 20 mg/kg; ([…] 20 mg/kg + curcumin 20 mg/kg; and (iv) […] 20 mg/kg + piperine 20 mg/kg + curcumin 20 mg/kg. The test substance powders received from the suppliers were packed into gelatine capsule, and the dogs were orally administered two to four capsules in the morning, according to the number of test substances required in the experimental plan. Blood samples (2-3 mL) were withdrawn from the cephalic or saphenous vein using an IV catheter and placed in heparinised tubes. […] The pre-dose and 24 h post-dose blood chemistry parameters were determined by the Small Animal Hospital, Faculty of Veterinary Science, Chulalongkorn University for all dogs, in order to monitor the health status of the dogs. […] All biological samples were kept at - 80 °C until required for analysis. Where the concentration of the samples exceeded the linear calibration curve, blank matrices were used to dilute the sample before protein precipitation. Methanol was used to extract the major triterpenoids from the biological samples for LCMS analysis. In brief, 50 μL of the biological sample was added to 200 μL methanol containing glycyrrhizin and glycyrrhetinic acid as internal standards. The mixture was then centrifuged at 12,000g for 10 min at 4 °C to collect the supernatant, and 10 μL of the supernatant was injected into the LCMS system to measure the concentration of the targeted analytes. […] A Synergi Fusion-RP C18 column (Phenomenex Inc.) was selected as the stationary phase and maintained at 40 °C in the column oven. […] The lower limit of quantification (LLOQ) of each of the compounds in this study ranged from 1.00 to 10.00 μg/L, according to the compound. After oral administration, pharmacokinetic parameters were determined by PK solution software version 2.0 (Submit Research Services, USA.) using non-compartmental analysis. The maximum plasma concentration (Cmax) and time to reach maximum plasma concentration (Tmax) were calculated directly from the concentration-time curves. The area under the curve from time 0-24 h (AUC0-24) was determined by the trapezoidal method and extrapolated to time infinity by the equation AUC0-inf = AUC0-24 + (Clast/kel), where Clast is the last measurable plasma concentration and kel is the elimination rate constant. The rate of […] was equal to - 2.303 × slope. The mean residence time (MRT) was calculated as AUMC0-inf/AUC0-inf, where AUMC0-inf is the area under the first moment curve. The volume of distribution (Vd) was equivalent to dose/C0, where C0 is the concentration of drug measured in plasma at time zero. The total clearance (CL) was equal to dose/AUC0-inf, and the elimination half-life was determined by 0.693/kel. […] The difference in blood chemistry parameters pre-dose and post-dose was compared using Student's t test. SPSS version 22.0 (IBM Corp.) was used to determine statistically significant differences between the experimental groups. […]"}, "[3]": {"details": "piperine in combination, self-emulsifying drug delivery systems; cited from earlier work"}, "[4]": {"set-up": "method as in PMID 19934593", "details": "pre-treatment with curcumin 60 mg/kg; cited from earlier work"}}}
{"compound": "CC(=O)O[C@@]12CO[C@@H]1C[C@H](O)[C@@]1(C)C(=O)[C@H](O)C3=C(C)[C@@H](OC(=O)[C@H](O)[C@@H](NC(=O)OC(C)(C)C)c4ccccc4)C[C@@](O)([C@@H](OC(=O)c4ccccc4)[C@H]21)C3(C)C", "note": "[docetaxel]", "values": [{"measurement": "Increase of bioavailability compared to the control group", "setting": "[1]", "value": "approximately eight-fold"}]}
{"compound": "madecassoside", "values": [{"measurement": "Increase of systemic exposure (Cmax and AUC) by Centell-S + piperine compared to Centell-S alone", "setting": "[2]", "value": "1.5 to 3.0", "unit": "fold"}, {"measurement": "Time to reach maximum plasma concentration", "setting": "[2]", "value": "2 to 4", "unit": "h"}, {"measurement": "Time to reach maximum plasma concentration", "setting": "[2]; po", "value": "1 to 2", "unit": "h"}]}
{"compound": "C=C(C)[C@@H]1CCC(C)=C[C@H]1c1c(O)cc(CCCCC)cc1O", "note": "[cannabidiol]", "values": [{"measurement": "Improvement of oral bioavailability compared to the control group", "setting": "[3]", "value": "approximately 2.5 fold"}]}
{"compound": "CCn1cc(C(=O)O)c(=O)c2cc(F)c(N3CCNCC3)cc21", "note": "[norfloxacin]", "values": [{"measurement": "Increase of AUC compared with the control group", "setting": "[4]", "value": "approximately two-fold"}]}
{"compound": "C[C@H]1[C@H](C)CC[C@]2(C(=O)O)CC[C@]3(C)C(=CC[C@@H]4[C@@]5(C)C[C@@H](O)[C@H](O)[C@@](C)(CO)[C@@H]5CC[C@]43C)[C@H]12", "note": "[Asiatic acid, asiatic acid]", "values": [{"measurement": "Increase of systemic exposure (Cmax and AUC) by Centell-S + piperine compared to Centell-S alone", "setting": "[2]; male, beagle", "value": "1.5 to 3.0", "unit": "fold"}, {"measurement": "Accumulation ratio", "setting": "[2]; male, beagle, 7 days", "value": "1.05–1.44"}, {"measurement": "Tmax", "setting": "[2]; male, beagle, po, Time to reach maximum plasma concentration", "value": "2 to 4", "unit": "h"}, {"measurement": "Tmax", "setting": "[2]; male, beagle, po, Tmax", "value": 2, "unit": "h"}]}
